B1: SHR-1210: humanized anti-PD-1 antibody produced by Hengrui Medicine (antibody, chains of the INN, looked up, V domains shown)
VH: EVQLVESGGGLVQPGGSLRLSCAASGFTFSSYMMSWVRQAPGKGLEWVATISGGGANTYYPDSVKGRFTISRDNAKNSLYLQMNSLRAEDTAVYYCARQLYYFDYWGQGTTVTVSS
VL: DIQMTQSPSSLSASVGDRVTITCLASQTIGTWLTWYQQKPGKAPKLLIYTATSLADGVPSRFSGSGSGTDFTLTISSLQPEDFATYYCQQVYSIPWTFGGGTKVEIK

Tests used:
[1] = system: colon cancer cell line MC38; experiment: Colon cancer tumor-bearing mouse model (C57BL/6); format: in vivo
Source text: (§1) Female C57BL/6 (6-8 weeks old) mice were purchased from Shanghai SLAC Laboratory Animal Co., Ltd.; humanized PD-1 transgenic mice were purchased from Nanjing Biomedical Research Institute of Nanjing University; and all mice were raised in SPF facilities. Mouse colon cancer cell line MC38, lung cancer cell line LLC-luci and melanoma cell line B16 were all purchased from American Type Culture Collection (ATCC). Since Treg cells can inhibit extensive antitumor immune response while promoting angiogenesis in the tumor microenvironment, to explore the in vivo influence of ursodeoxycholic acid on Treg cells, tumor-bearing models are established using mouse colon cancer cell line MC38, lung cancer cell line LLC-luci and melanoma cell line B16, with female SPF-grade C57BL/6 as the experiment subject. For better internal absorption of ursodeoxycholic acid, the above-mentioned ursodeoxycholic acid is replaced with sodium ursodeoxycholate (SANTA CRUZ BIOTECHNOLOGY, #2898-95-5). The control group and the experimental group both received injection of ddH2O and URSO (30 mg/kg) every day, with tumor size observed and recorded. […] Two weeks later, separate the tumor-infiltrating lymphocytes for analysis by flow cytometry. […]

melanoma cell line B16 [2] = experiment: Melanoma tumor-bearing mouse model (C57BL/6); format: in vivo
Source text: as §1

[3] = system: lung cancer cell line LLC-luci; experiment: Lung cancer tumor-bearing mouse model (C57BL/6); format: in vivo
Source text: as §1

[4] = system: Treg cell differentiation (human naïve CD4+ T cells); experiment: In vitro Treg cell differentiation of human naïve CD4+ T cells, flow cytometry; format: cell-based; conditions: human naïve CD4+ T cells from healthy volunteers, CD3/CD28 activation, flow cytometry on day 4 (FIG. 8)
Method: To investigate the influence of ursodeoxycholic acid on humanized Treg cell differentiation, whole blood of volunteers were collected (ethics approval: approved by Medical Ethics Committee of Zhejiang University School of Medicine, Shen Lun No. 2019-013; five healthy volunteers, 10 ml peripheral venous blood each, collected by Zhejiang Medial & Health Group Hangzhou Hospital). naïve CD4+ T cells were sorted. Detailed procedures are as follows: 1. Separation of peripheral blood mononuclear cells: • (1) Fresh anticoagulant whole blood (EDTA, sodium citrate or heparin) was taken. Whole blood was diluted with isotonic solution (PBS or normal saline) of equal volume. • (2) A certain volume of separating medium (VESTA, #7111011) was added into a centrifuge tube, diluted blood sample was spread evenly on the surface of separating medium, and maintained a clear interface between two liquid surfaces. […] Sorting of human naïve CD4+ T cells: • (1) With Human naïve CD4+ T Cell Kit (STEMCELL, #19155) and the standard kit method adopted, naïve CD4+ T cells were sorted from human peripheral blood mononuclear cells, and plating was conducted according to the method in Example 1. • (2) Human T-Activator CD3/CD28 was added for T Cell Expansion and Activation (Gibco, #11161D). • (3) On day 4, Treg cell differentiation was detected by flow cytometry.

[5] = system: Treg cell differentiation (mouse naïve CD4+ T cells); experiment: In vitro Treg cell differentiation of mouse naïve CD4+ T cells, flow cytometry; format: cell-based; conditions: 50 μM vs DMSO, anti-CD3/anti-CD28, flow cytometry on day 4 (FIG. 1)
Source text: Treg cell surface can express CD4 and CD25 molecules. In addition, it is characterized by its high expression of transcription factor Foxp3. Based on the characteristic above, flow cytometry is adopted to explore the in vitro influence of ursodeoxycholic acid on Treg cell differentiation. Detailed procedures are as follows: T cell sorting: Mouse T cells were sorted by immunomagnetic beads methods. The mice were killed by cervical dislocation, spleens and lymph nodes were taken under aseptic conditions, ground and put through a sieve, centrifuged at 400 g for 5 min, and cells were resuspended with sort buffer. The total cells were counted with 3% glacial acetic acid, and proceeded strictly following the instructions of the sorting kit. CD4 negative selection kit (EasySep™ Mouse CD4+ T Cell Isolation Kit, #19852A) and Biotin sorting kit (EasySep™ Mouse Biotin Positive Selection Kit, #18556) were used in combination for sorting naïve CD4+ T cells (CD4-positive naïve T cells). […] After sorting, when the CD4+CD62L+ purity detected by flow cytometry is greater than 95%, cells were used for further experiments. […] DMSO or ursodeoxycholic acid U5127 (SIGMA-ALDRICH, #128-13-2) was added with a concentration of 50 μM respectively, and the differentiation of Treg cells were detected by flow cytometry on day 4. […]

[6] = system: lung cancer cell line LLC; experiment: Combination with anti-PD-1 antibody, lung cancer model in humanized PD-1 transgenic mice; format: in vivo, mouse; conditions: LLC subcutaneous, SHR-1210 10 mg/kg every two days, URSO 30 mg/kg every other day, vs water and humanized IgG4 (FIG. 6)
Source text: (§2) Female C57BL/6 (6-8 weeks old) mice were purchased from Shanghai SLAC Laboratory Animal Co., Ltd.; humanized PD-1 transgenic mice were purchased from Nanjing Biomedical Research Institute of Nanjing University; and all mice were raised in SPF facilities. Mouse colon cancer cell line MC38, lung cancer cell line LLC-luci and melanoma cell line B16 were all purchased from American Type Culture Collection (ATCC).
(§3) To verify whether the combined use of ursodeoxycholic acid and anti-PD-1 antibody can improve antitumor effect, colon cancer cell line MC38, melanoma cell line B16 and lung cancer cell line LLC are inoculated subcutaneously into humanized PD-1 transgenic mice, which were randomly divided into four groups when tumor volume reaches 100 mm^3. Treatment groups were treated with SHR-1210, URSO or SHR-1210 in combination with URSO, while the control groups were injected with water and humanized IgG4 (an isotype control for SHRR-1210). SHR-1210 was used every two days at a dosage of 10 mg/kg, while URSO was used every other day at 30 mg/kg, with the volume of tumor recorded each time.

melanoma cell line B16 [7] = experiment: Combination with anti-PD-1 antibody, melanoma model in humanized PD-1 transgenic mice; format: in vivo, mouse; conditions: B16 subcutaneous, SHR-1210 10 mg/kg every two days, URSO 30 mg/kg every other day, vs water and humanized IgG4 (FIG. 7)
Source text: as §2, §3

[8] = system: colon cancer cell line MC38; experiment: Combination with anti-PD-1 antibody, colon cancer model in humanized PD-1 transgenic mice; format: in vivo, mouse; conditions: MC38 subcutaneous, SHR-1210 10 mg/kg every two days, URSO 30 mg/kg every other day, vs water and humanized IgG4 (FIG. 5)
Source text: as §2, §3

Molecule	proportion of Treg cells in tumor infiltrating lymphocytes ([1]; two weeks of treatment, flow cytometry (FIG. 4B))	proportion of Treg cells in tumor infiltrating lymphocytes (melanoma cell line B16 [2]; two weeks of treatment, flow cytometry (FIG. 2B))	proportion of Treg cells in tumor infiltrating lymphocytes ([3]; two weeks of treatment, flow cytometry (FIG. 3B))	differentiation of humanized endogenous Treg cells [4]	proportion of endogenous Treg cells [5]	tumor volume ([1]; C57BL/6 mice, 30 mg/kg injection every day, vs ddH2O control (FIG. 4A))	tumor volume (melanoma cell line B16 [2]; C57BL/6 mice, 30 mg/kg injection every day, vs ddH2O control (FIG. 2A))	tumor volume ([3]; C57BL/6 mice, 30 mg/kg injection every day, vs ddH2O control (FIG. 3A))	tumor growth (tumor volume) [6]	tumor growth (tumor volume) (melanoma cell line B16 [7])	tumor growth (tumor volume) [8]
C[C@H](CCC(=O)O)[C@H]1CC[C@H]2[C@@H]3[C@@H](O)C[C@@H]4C[C@H](O)CC[C@]4(C)[C@H]3CC[C@]12C [ursodeoxycholic acid]	reduced	reduced	reduced	reduced	significantly reduced	–	–	–	–	–	–
C[C@H](CCC(=O)[O-])[C@H]1CC[C@H]2[C@@H]3[C@@H](O)C[C@@H]4C[C@H](O)CC[C@]4(C)[C@H]3CC[C@]12C.[Na+] [URSO, sodium ursodeoxycholate]	–	–	–	–	–	obviously smaller in volume	obviously smaller in volume	obviously smaller in volume	significantly inhibited tumor growth	significantly inhibited tumor growth	significantly inhibited tumor growth
B1	–	–	–	–	–	–	–	–	significantly inhibited tumor growth	significantly inhibited tumor growth	significantly inhibited tumor growth

From patent publication US20210386762A1, “THE APPLICATION OF URSODEOXYCHOLIC ACID OR ITS PHARMACEUTICAL SALT IN THE PREPARATION OF AN ANTITUMOR DRUG AND AN ANTITUMOR DRUG” (ZHEJIANG UNIVERSITY, priority 2018, published 2021)
